Reference: patent US10766882B2, “1,2-naphthoquinone based derivative and method of preparing the same” (YUNGJIN PHARM. CO., LTD., priority 2013, dated 2020)

Key:
[1] = tested on: C57BL/6J Lep ob/ob mice; test: Weight loss effects in obese mice (ob/ob); type: in vivo; details: vs 0.1% SLS controls
Description: 10 week-old C57BL/6J Lep ob/ob mice having genetic obesity characteristics available from ORIENTBIO were prepared. Two mice were raised in each polycarbonate breeding cage (200 W×260 L×130H (mm), Three-shine) in which temperature was 20 to 24° C., relative humidity was 35 to 65%, illuminance was 150 to 300 lux, night and day were 12 hours, and exhaust was performed at 10 to 15 air changes per hour. As a feed, low fat diet (11.9 kcal % fat, 5053, Labdiet) manufactured by ORIENTBIO was used. The feed was contained in a feeder and free intake was allowed. As drinking water, water, which was contained in a 250 mL polycarbonate based bottle, purified through a filter and a sterilizer was used and free intake was allowed.
The compound according to Example 1 synthesized in the present invention was orally administered to three C57BL/6J Lep ob/ob mice in amounts of 40 mg/kg, 80 mg/kg, and 120 mg/kg, respectively, once every day for two weeks. For administration, a disposable syringe fitted with a sonde for oral administration was used and 10 ml/kg of the compound was orally administered into the stomach. As controls, three C57BL/6J Lep ob/ob mice were administered 0.1% sodium lauryl sulfate (SLS) in an amount of 120 mg/kg in the same manner as described above. After administration, a time-dependent weight increase ratio, weight change, and intake amount were measured and results are illustrated in FIG. 1 below.
Weights of the experimental animals were measured immediately before administration of a test material and seven times a week from an administration initiation day to a test termination day. Increased total weights were calculated by subtracting weights measured on an experiment initiation day from weights measured one day before an experiment termination day. Food intake amounts were calculated by measuring feed supply amounts and remaining amounts twice a week from an initiation day of test material administration to a test termination day for each individual. […]
(§1) Experiments were performed under the same conditions as in Experimental Example 3-1 except that 15 week-old C57BL/6J Lep ob/ob mice having genetic obesity characteristics available from ORIENTBIO were prepared, the compounds according to Examples 5 and 6 were administered to three C57BL/6J Lep ob/ob mice in an amount of 150 mg/kg, 150 mg/kg of 0.1% SLS was administered to each of three C57BL/6J Lep ob/ob mice as controls, and experiments were performed for a total of one week. Weight increase ratios, weight change, and intake amounts depending on administration time were measured and results are illustrated in FIG. 5 below.
as §1, with “that 10” for “that 15”, “Examples 8, 9,” for “Examples 5”, “and 12” for “and 6”, “FIG. 6” for “FIG. 5”
Experiments were performed under the same conditions as in Experimental Example 3-1 except that 6 week-old C57BL/6J Lep ob/ob mice having genetic obesity characteristics available from ORIENTBIO were prepared, the compounds according to Examples 17, 18, 22, and 23 were administered to three C57BL/6J Lep ob/ob mice in an amount of 100 mg/kg, 100 mg/kg of 0.1% SLS was administered to each of three C57BL/6J Lep ob/ob mice as controls, and experiments were performed for a total of one week. Weight increase ratios, weight change, and intake amounts depending on administration time were measured and results are illustrated in FIG. 10 below. […]

[2] = tested on: Cells; test: Measurement of lactate change amount within cells; type: cell-based; details: PCA extract of cells, lactate measured from supernatant (Megazyme, K-LATE)
Description: Cells were treated with 400 μl of 6% PCA, and then collected and extracted. Centrifugation (13,000 rpm, 10 min) was performed. A precipitate was dried using a Speed-Vac and then a weight of dried precipitate was measured. A supernatant was neutralized using 400 μl of 1 M KOH and a final volume thereof was adjusted to 1 ml using 0.33 M KH2PO4/K2HPO4, pH 7.5. Centrifugation (13,000 rpm, 10 min) was performed and the amount of lactate was measured from a supernatant (Megazyme, K-LATE).

[3] = biological target: NQO1 protein (Homo sapiens, UniProt P15559); test: NQO1 activity measurement (cytochrome C reduction); type: biochemical; details: 5 ng NQO1 protein, 200 μM NADH, 77 μM cytochrome C, 37° C., absorbance 550 nm for 10 minutes
NQO1 protein, sequence (P15559 whole entry, species assumed): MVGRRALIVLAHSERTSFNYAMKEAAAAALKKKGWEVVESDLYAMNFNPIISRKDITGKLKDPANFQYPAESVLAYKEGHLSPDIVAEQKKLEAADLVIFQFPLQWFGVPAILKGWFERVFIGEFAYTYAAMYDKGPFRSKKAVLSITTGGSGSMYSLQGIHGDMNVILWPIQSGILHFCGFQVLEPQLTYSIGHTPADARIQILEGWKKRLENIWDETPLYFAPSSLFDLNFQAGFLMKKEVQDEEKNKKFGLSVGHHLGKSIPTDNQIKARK

[4] = Exp. Ex. 3-4, FIG. 4: 12 week-old ob/ob mice, 150 mg/kg oral, one week
[5] = Exp. Ex. 3-5, FIG. 5: 15 week-old ob/ob mice, 150 mg/kg oral, one week
[6] = Exp. Ex. 3-10, FIG. 13: 6 week-old ob/ob mice, 100 mg/kg oral, two weeks
[7] = Exp. Ex. 3-12, FIG. 15: 6 week-old ob/ob mice, 100 mg/kg oral, two weeks
[8] = Exp. Ex. 3-7, FIG. 10: 6 week-old ob/ob mice, 100 mg/kg oral, one week
[9] = Exp. Ex. 3-8, FIG. 11: 10 week-old ob/ob mice, 150 mg/kg oral, five days

CC(C)(C)c1nc2c([nH]1)C(=O)C(=O)c1ccccc1-2 [Example 5, 2-tert-butyl-3H-naphtho[2,1-d]imidazole-4,5-dione] was tested, and the intake amount [1, 4] was “significantly decreased”, the weight change [1, 4] was “significantly decreased” and the weight increase ratio [1, 4] was “significantly decreased”. The intake amount [1, 5] was “significantly decreased”, the weight change [1, 5] was “significantly decreased” and the weight increase ratio [1, 5] was “significantly decreased”. The “Lactate change amount within cells (nmol/mg cell)” value (“Lactate change amount within cells” for short) [2] was 8.5 nmol/mg cell and the “NQO1 activity (5 μM, [nmol cytochrome C reduced/min/μg protein])” value [3] was 153 nmol cytochrome C reduced/min/μg protein.

With O=C1C(=O)c2[nH]c(C3CCCCC3)nc2-c2ccccc21 [Example 6, 2-cyclohexyl-3H-naphtho[2,1-d]imidazole-4,5-dione] the intake amount [1, 5] was “significantly decreased”, the weight change [1, 5] was “significantly decreased” and the weight increase ratio [1, 5] was “significantly decreased”. For the same molecule, the “Lactate change amount within cells” value [2] was 4.6 nmol/mg cell and the “NQO1 activity (5 μM, [nmol cytochrome C reduced/min/μg protein])” value [3] was 253 nmol cytochrome C reduced/min/μg protein.

CC(C)c1nc2c(n1C)C(=O)C(=O)c1ccccc1-2 [Example 35] was tested, and the intake amount [1, 6] was “significantly decreased in some sections”, the weight change [1, 6] was “significantly decreased in some sections” and the weight increase ratio [1, 6] was “significantly decreased in some sections”. For the same molecule, the intake amount [1, 7] was “significantly decreased in some sections”, the weight change [1, 7] was “significantly decreased in some sections” and the weight increase ratio [1, 7] was “significantly decreased in some sections”. The “Lactate change amount within cells” value [2] was 8.1 nmol/mg cell and the “NQO1 activity (5 μM, [nmol cytochrome C reduced/min/μg protein])” value [3] was 190.3 nmol cytochrome C reduced/min/μg protein.

With CC(C)c1nc2c([nH]1)C(=O)C(=O)c1cc(N(C)C)ccc1-2 [Example 23] the intake amount [1, 8] was “significantly decreased in some sections”, the weight change [1, 8] was “significantly decreased in some sections” and the weight increase ratio [1, 8] was “significantly decreased in some sections”. The “Lactate change amount within cells” value [2] was 5.6 nmol/mg cell and the “NQO1 activity (5 μM, [nmol cytochrome C reduced/min/μg protein])” value [3] was 78.4 nmol cytochrome C reduced/min/μg protein.

With O=C1C(=O)c2[nH]c(-c3ccccc3)nc2-c2ccccc21 [Example 4, 2-phenyl-3H-naphtho[2,1-d]imidazole-4,5-dione] the weight change [1, 4] was “significantly decreased”, the weight increase ratio [1, 4] was “significantly decreased” and the “Lactate change amount within cells” value [2] was 9.1 nmol/mg cell. The “NQO1 activity (5 μM, [nmol cytochrome C reduced/min/μg protein])” value [3] was 122 nmol cytochrome C reduced/min/μg protein.

CC(C)c1nc2c([nH]1)C(=O)C(=O)c1cc(Cl)ccc1-2 [Example 17] was tested, and the intake amount [1, 8] was “significantly decreased in some sections”, the weight change [1, 8] was “significantly decreased in some sections” and the weight increase ratio [1, 8] was “significantly decreased in some sections”. The “Lactate change amount within cells” value [2] was 6.0 nmol/mg cell and the “NQO1 activity (5 μM, [nmol cytochrome C reduced/min/μg protein])” value [3] was 206.9 nmol cytochrome C reduced/min/μg protein.

With CCc1nc2c([nH]1)C(=O)C(=O)c1cc(F)ccc1-2 [Example 26] the intake amount [1, 9] was “significantly decreased in some sections”, the weight change [1, 9] was “significantly decreased in some sections” and the weight increase ratio [1, 9] was “significantly decreased in some sections”. The “Lactate change amount within cells” value [2] was 5.7 nmol/mg cell and the “NQO1 activity (5 μM, [nmol cytochrome C reduced/min/μg protein])” value [3] was 223.5 nmol cytochrome C reduced/min/μg protein.
